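48-hour exposure; five concentrations; linearly interpolated endpoints. TGI is the concentration that stops growth completely.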
How the values were obtained:
Experiment in all cases: inhibition of tumour cell growth, NCI panel, 48 h
HL-60(TB) leukemia = system: HL-60(TB) leukemia
HS 578T breast = system: HS 578T breast
KM12 colon = system: KM12 colon
MALME-3M melanoma = system: MALME-3M melanoma
MDA-N = system: MDA-N
MOLT-4 leukemia = system: MOLT-4 leukemia
NCI-H460 lung = system: NCI-H460 lung
NCI-H522 lung = system: NCI-H522 lung
OVCAR-5 ovarian = system: OVCAR-5 ovarian
RXF 393 renal = system: RXF 393 renal
SF-268 CNS = system: SF-268 CNS
SF-295 CNS = system: SF-295 CNS
SK-MEL-28 melanoma = system: SK-MEL-28 melanoma
SK-MEL-5 melanoma = system: SK-MEL-5 melanoma
SW-620 colon = system: SW-620 colon
T-47D breast = system: T-47D breast
UACC-257 melanoma = system: UACC-257 melanoma
UO-31 renal = system: UO-31 renal
HOP-62 NSCLC = system: HOP-62 NSCLC

SMILES	TGI (HL-60(TB) leukemia) [µM]	TGI (HS 578T breast) [µM]	TGI (KM12 colon) [µM]	TGI (MALME-3M melanoma) [µM]	TGI (MDA-N) [µM]	TGI (MOLT-4 leukemia) [µM]	TGI (NCI-H460 lung) [µM]	TGI (NCI-H522 lung) [µM]	TGI (OVCAR-5 ovarian) [µM]	TGI (RXF 393 renal) [µM]	TGI (SF-268 CNS) [µM]	TGI (SF-295 CNS) [µM]	TGI (SK-MEL-28 melanoma) [µM]	TGI (SK-MEL-5 melanoma) [µM]	TGI (SW-620 colon) [µM]	TGI (T-47D breast) [µM]	TGI (UACC-257 melanoma) [µM]	TGI (UO-31 renal) [µM]	TGI (HOP-62 NSCLC) [µM]
Cc1c(S(=O)(=O)c2ccccc2)c(N)n(CCN(C)C)c1C	> 100	> 100	> 100	> 100	> 100	> 100	> 100	> 100	> 100	> 100	> 100	> 100	> 100	> 100	> 100	> 100	> 100	> 100	–
CC1=NN(c2cccc(Cl)c2)C2(C1=C/C=C/c1ccccc1)C(Cl)C(=O)N2c1nc2ccccc2s1 (stereo unspecified)	> 68.3	49	> 67.5	> 100	> 100	12.1	> 100	47.4	> 71.2	> 49	56.1	> 100	> 100	> 58.7	> 96.1	> 100	> 100	> 61.2	> 100
CC1OC(OC2C(OC(=O)[C@]34CCC(C)(C)C[C@H]3C3=CC[C@@H]5[C@@]6(C)CC[C@H](OC7OC(C(=O)O)C(O)C(O)C7O)C(C)(C)[C@@H]6CC[C@@]5(C)[C@]3(C)C[C@H]4O)OCC(O)C2O)C(O)C(OC2OCC(O)(CO)C2O)C1OC1OCC(O)C(O)C1O (stereo partly specified)	11.4	40	16.3	24.7	16	38.8	36.5	16.5	22.9	31.5	33.7	26.9	15.2	28.1	23.2	26.4	26.6	8.42	32.4
CN1CSC(=S)N(c2c3ccccc3nc3ccc(Br)cc23)C1	27.2	47.2	33.6	33.2	25.3	5.87	13.6	12.6	31.6	24.7	27.4	21.2	35.2	26.2	23.8	38.3	24.8	22.4	51
N#CC12C(=O)N=C(N)C1(C#N)C(c1ccco1)NC1=C2CCCC1 (stereo unspecified)	> 100	> 100	> 100	> 100	> 100	> 100	> 100	> 100	> 100	> 100	> 100	> 100	> 100	> 100	> 100	> 100	> 100	> 100	> 100
COc1cccc2c(=O)oc(-c3ccc(C(C)(C)C)cc3)nc12	44	> 100	> 100	> 100	> 100	48.2	> 100	89.6	> 100	> 100	> 100	> 100	> 100	87.4	> 100	> 100	> 100	> 100	> 100
C=CCSc1nnc2cc(CN3CCCC3)c(-c3ccc(Cl)cc3)nn12	43.5	> 100	64.7	43.2	34.2	> 100	36.1	42.6	41.5	31.5	46	53.7	47.8	31.1	93	71.4	32.3	30.4	45.4
CCOC(=O)c1nc2c(nc1C(=O)OCC)C(=O)c1ccccc1C2=O	1.55	0.766	14.7	0.362	0.796	6.31	3.73	4.23	2.24	2.81	7.62	1.55	3.01	2.19	3.77	> 62.8	1.28	1.18	3.78
CCN(CC)CCn1c(=O)c2cccnc2n2c3c(=O)n(C)c(=O)n(C)c3nc12	> 100	> 100	> 100	> 100	> 100	> 100	> 100	> 100	> 100	> 100	> 100	> 100	> 100	> 100	> 100	> 100	> 100	> 100	> 100
CC(=N/N=C/c1ccccn1)/C(C)=N/N=C(C)/C(C)=N/N=C(C)/C(C)=N/N=C(C)/C(C)=N\N=C\c1ccccn1	> 100	> 100	> 100	> 100	> 100	–	> 100	> 100	> 100	> 100	> 100	> 100	> 100	> 100	> 100	> 100	> 100	> 100	> 100
O=C(/C=C/c1ccc2c(c1)OCO2)CC(=O)C(=O)c1c[nH]c2ccccc12	> 100	68.1	> 100	> 100	91.3	> 100	> 100	> 100	> 100	96.6	> 100	> 100	> 100	> 100	> 100	62.1	> 100	64.1	> 100
COc1cc(C2c3cc4c(cc3OC(NN)C2C)OCO4)cc(OC)c1OC (stereo unspecified)	0.977	> 100	> 100	> 100	> 100	> 100	> 100	8.96	> 100	> 100	> 100	> 22.7	> 100	> 26.8	> 100	> 100	> 100	> 100	8.55
CC1(C)CCCC2OC2CCC(C)(C)C1=O (stereo unspecified)	> 100	> 100	> 100	> 100	> 100	> 100	> 100	> 100	> 100	> 100	> 100	> 100	> 100	> 100	> 100	> 100	> 100	> 100	> 100
NC1=NCC(CN2CCOCC2)O1 (stereo unspecified)	> 100	> 100	> 100	> 100	> 100	> 100	> 100	> 100	> 100	> 100	> 100	> 100	> 100	> 100	> 100	> 100	> 100	> 100	> 100
Cc1cccc2c1CC1(C2)Cc2c(C)cccc2C1=O (stereo unspecified)	52.6	> 100	51.5	49.7	61.8	30.2	83.2	59.3	> 100	38.1	87.1	68.8	56.5	33.7	> 100	> 100	63.5	> 100	54.5
O=C(O)/C=C(/C(=O)O)C12CCN3CC4=CCOC5CC(=O)NC1C5C4CC32 (stereo unspecified)	> 100	> 100	> 100	> 100	> 100	> 100	> 100	> 100	> 100	> 100	> 100	> 100	> 100	> 100	> 100	> 100	> 100	> 100	> 100
O=[N+]([O-])c1ccc(Oc2c(Cl)cc(S(=O)(=O)/N=C(\NO)Nc3ccc(Cl)cc3)cc2Cl)cc1	13.7	36.7	29	29	24.8	21.7	24.8	12.7	25.8	29.9	35.3	27.3	28.7	22.2	28.6	34.3	22.6	19.2	32.7
COc1ccc2c(c1)/C(=C\c1c(Cl)nc3sc(C)cn13)C(=O)N2	6.11	9.6	15.2	19.9	2.04	8.41	12.3	14.4	25.4	21.1	17.3	11	25.5	11.8	11.7	14.6	21	19	19.4
CSC(=S)N(C)C	> 100	> 100	> 100	> 100	> 100	> 100	> 100	> 100	> 100	> 100	> 100	> 100	> 100	> 100	> 100	> 100	> 100	> 100	> 100
O=C(O)c1ccccc1CC1Cc2ccccc2C1=O (stereo unspecified)	> 100	> 100	> 100	> 100	> 100	> 100	> 100	> 100	> 100	> 100	> 100	> 100	> 100	> 100	> 100	> 100	> 100	> 100	> 100
CC(=O)Nc1nc(C#N)[nH]c1C#N	> 100	> 100	> 100	> 100	> 100	> 100	> 100	> 100	> 100	> 100	> 100	> 100	> 100	> 100	> 100	> 100	> 100	> 100	> 100
N=C(N)SCc1ccc2c(c1)Sc1ccccc1O2	> 63	16.5	16.4	23.1	19	> 93.3	21.5	3.09	25.3	14	27.8	24.2	38.7	3.11	34	43	14.2	10.6	34.1
Cc1ccc(C(=C2Sc3ccccc3S2)C(=C2Sc3ccccc3S2)c2ccc(C)s2)s1	> 100	> 100	> 100	> 100	> 100	> 100	–	> 100	> 100	> 100	> 100	> 100	> 100	> 100	> 100	> 100	> 100	> 100	> 100
NS(=O)(=O)c1cc(Cl)c(NC(=S)NC(=O)Nc2ccc(Cl)c(Cl)c2)c(Cl)c1	68.4	> 100	> 100	> 100	> 100	> 100	> 100	86.4	> 100	> 100	> 100	> 100	> 100	40.3	> 100	> 100	> 100	> 100	> 100
O=C(Nc1nccs1)c1c(O)nc2sccn2c1=O	> 10	> 10	> 10	> 10	> 10	> 10	> 10	> 10	> 10	> 10	> 10	> 10	> 10	> 10	> 10	> 10	–	> 10	> 10
